In US6461997B1, “Triazole sulfones having herbicidal activity” (Monsanto Technology LLC, priority 1999, dated 2002):

Tests used:
[1] = system: LOLMG (annual ryegrass); test: Pre-plant incorporated (PPI) herbicidal activity, cool season; format: in vivo, Lolium multiflorum; details: for PPI activity GR80, LOLMG: pre-plant incorporated, lowest tested rate with 80% or greater inhibition, about 14 days
Summary of the method: (§1)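 Percent inhibition relative to untreated plants, scored about 14 days after planting. Compound was sprayed in organic solvent onto cover soil, mixed through, and layered over seeds on compacted topsoil. Warm-season species grown at 30/21° C, cool-season at 18/13° C day/night.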

[2] = system: barley (HORVX); test: Selectivity test, PPI, cool season crop; format: in vivo, Hordeunm vulgare; details: Hordeum vulgare, PPI application, read-out: Percent inhibition HORVX
Summary of the method: (§2)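 Percent inhibition relative to untreated controls, assessed roughly 14 days post-planting. Seeds were covered with a soil layer into which solvent-borne compound had been sprayed and mixed. Plants were then grown at 30/21° C. (warm season) or 18/13° C. (cool season) day/night regimes.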

[3] = system: STEME (common chickweed); test: Pre-plant incorporated (PPI) herbicidal activity, cool season; format: in vivo, Stellaria media; details: for PPI activity GR80, STEME: pre-plant incorporated, lowest tested rate with 80% or greater inhibition, about 14 days
Summary of the method: as §1

[4] = system: rice (ORYSA); test: Selectivity test, PPI, warm season crop; format: in vivo, Oryza sativa; details: Oryza sativa, PPI application, read-out: Percent inhibition ORYSA
Summary of the method: as §2

[5] = system: SETVI (green foxtail); test: Post-emergence herbicidal activity, cool season; format: in vivo, Setaria viridis; details: abraded plants sprayed at 300, 100, 30 and 10 g/ha; about 14 days after treatment
Summary of the method: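 Seeds sown in topsoil, covered with 50% topsoil/50% Rediearth™, subirrigated. At 9 to 14 days, foliage abraded, then sprayed at 300, 100, 30 or 10 g/ha in acetone/water 50:50. Plants held at 18/13° C. day/night, rated for % inhibition at ~14 days, GR80 assigned.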

[6] = system: POLCO (wild buckwheat); test: Pre-plant incorporated (PPI) herbicidal activity, cool season; format: in vivo, Polygonum convolvulus; details: for PPI activity GR80, POLCO: pre-plant incorporated, lowest tested rate with 80% or greater inhibition, about 14 days
Summary of the method: as §1

[7] = system: BRAPP (broadleaf signalgrass); test: Pre-plant incorporated (PPI) herbicidal activity, warm season; format: in vivo, Brachiaria platyphylla; details: for PPI activity GR80, BRAPP: pre-plant incorporated, lowest tested rate with 80% or greater inhibition, about 14 days
Summary of the method: as §1

[8] = system: AGSST (creeping bentgrass); test: Pre-plant incorporated (PPI) herbicidal activity, cool season; format: in vivo, Agrostis stolonifera; details: for PPI activity GR80, AGSST: pre-plant incorporated, lowest tested rate with 80% or greater inhibition, about 14 days
Summary of the method: as §1

[9] = system: GALAP (catchweed bedstraw); test: as above; format: in vivo, Galium aparine; details: for PPI activity GR80, GALAP: pre-plant incorporated, lowest tested rate with 80% or greater inhibition, about 14 days
Summary of the method: as §1

[10] = system: corn (ZEAMX); test: Selectivity test, PPI, warm season crop; format: in vivo, Zea mays; details: Zea mays, PPI application, read-out: Percent inhibition ZEAMX
Summary of the method: as §2

[11] = Lolium multiflorum, weed, PPI application, read-out: Percent inhibition LOLMG
[12] = Urochloa platyphylla, PPI application, read-out: Percent inhibition BRAPP
[13] = Agrostis stolonifera, weed, PPI application, read-out: Percent inhibition AGSST
[14] = Galium aparine, weed, PPI application, read-out: Percent inhibition GALAP

C=C(Br)CC(F)(F)S(=O)(=O)c1ncn(C(=O)N(CC)CC)n1 [Example 19]
inhibition at 10 g/ha ([1]; Lolium multiflorum, weed, PPI application, 10 g/ha, read-out: Percent inhibition LOLMG): 30% | inhibition at 30 g/ha [1, 11]: 70% | inhibition at 100 g/ha [1, 11]: 100% | inhibition at 300 g/ha [1, 11]: 100% | inhibition at 900 g/ha [1, 11]: 100% | PPI activity GR80, LOLMG [1]: 300 g/ha | inhibition at 10 g/ha ([2]; 10 g/ha): 0% | inhibition at 30 g/ha [2]: 0% | inhibition at 100 g/ha [2]: 20% | inhibition at 300 g/ha [2]: 20% | inhibition at 900 g/ha [2]: 45% | PPI activity GR80, STEME [3]: 100 g/ha | inhibition at 10 g/ha ([4]; 10 g/ha): 0% | inhibition at 30 g/ha [4]: 0% | inhibition at 100 g/ha [4]: 0% | inhibition at 900 g/ha [4]: 20% | Post-emergence activity GR80, SETVI [5]: [empty] | PPI activity GR80, POLCO [6]: * (activity observed, at least at highest rate, but <80% inhibition) | inhibition at 10 g/ha ([7]; Urochloa platyphylla, PPI application, 10 g/ha, read-out: Percent inhibition BRAPP): 0% | inhibition at 30 g/ha [7, 12]: 0% | inhibition at 100 g/ha [7, 12]: 30% | inhibition at 300 g/ha [7, 12]: 100% | inhibition at 900 g/ha [7, 12]: 100% | PPI activity GR80, BRAPP [7]: 300 g/ha | inhibition at 10 g/ha ([8]; Agrostis stolonifera, weed, PPI application, 10 g/ha, read-out: Percent inhibition AGSST): 60% | inhibition at 30 g/ha [8, 13]: 90% | inhibition at 100 g/ha [8, 13]: 100% | inhibition at 300 g/ha [8, 13]: 90% | inhibition at 900 g/ha [8, 13]: 100% | PPI activity GR80, AGSST [8]: 10 g/ha | inhibition at 10 g/ha ([9]; Galium aparine, weed, PPI application, 10 g/ha, read-out: Percent inhibition GALAP): 85% | inhibition at 30 g/ha [9, 14]: 100% | inhibition at 100 g/ha [9, 14]: 100% | inhibition at 300 g/ha [9, 14]: 50% | inhibition at 900 g/ha [9, 14]: 100% | PPI activity GR80, GALAP [9]: 100 g/ha | inhibition at 10 g/ha ([10]; 10 g/ha): 0% | inhibition at 30 g/ha [10]: 0% | inhibition at 100 g/ha [10]: 10% | inhibition at 300 g/ha [10]: 10% | inhibition at 900 g/ha [10]: 35%

CCSC(F)(F)S(=O)(=O)c1ncn(C(=O)N(CC)CC)n1 [Example 8, 1-(N,N-diethylcarbamoyl)-3-[difluoro(ethylthio)methylsulfonyl]-1,2,4-triazole]
inhibition at 30 g/ha [1, 11]: 35% | inhibition at 100 g/ha [1, 11]: 100% | inhibition at 300 g/ha [1, 11]: 100% | inhibition at 900 g/ha [1, 11]: 100% | PPI activity GR80, LOLMG [1]: 100 g/ha | inhibition at 30 g/ha [2]: 0% | inhibition at 100 g/ha [2]: 0% | inhibition at 300 g/ha [2]: 10% | inhibition at 900 g/ha [2]: 60% | inhibition at 30 g/ha ([3]; Stellaria media, weed, PPI application, 30 g/ha, read-out: Percent inhibition STEME): 80% | inhibition at 100 g/ha ([3]; Stellaria media, weed, PPI application, 100 g/ha, read-out: Percent inhibition STEME): 80% | inhibition at 300 g/ha ([3]; Stellaria media, weed, PPI application, 300 g/ha, read-out: Percent inhibition STEME): 95% | inhibition at 900 g/ha ([3]; Stellaria media, weed, PPI application, 900 g/ha, read-out: Percent inhibition STEME): 99% | PPI activity GR80, STEME [3]: 30 g/ha | inhibition at 30 g/ha [4]: 0% | inhibition at 100 g/ha [4]: 40% | inhibition at 300 g/ha ([4]; 300 g/ha): 50% | inhibition at 900 g/ha [4]: 70% | Post-emergence activity GR80, SETVI [5]: [empty] | inhibition at 30 g/ha ([6]; Fallopia convolvulus, weed, PPI application, 30 g/ha, read-out: Percent inhibition POLCO): 0% | inhibition at 100 g/ha ([6]; Fallopia convolvulus, weed, PPI application, 100 g/ha, read-out: Percent inhibition POLCO): 0% | inhibition at 300 g/ha ([6]; Fallopia convolvulus, weed, PPI application, 300 g/ha, read-out: Percent inhibition POLCO): 85% | inhibition at 900 g/ha ([6]; Fallopia convolvulus, weed, PPI application, 900 g/ha, read-out: Percent inhibition POLCO): 100% | PPI activity GR80, POLCO [6]: 300 g/ha | inhibition at 30 g/ha [7, 12]: 40% | inhibition at 100 g/ha [7, 12]: 70% | inhibition at 300 g/ha [7, 12]: 100% | inhibition at 900 g/ha [7, 12]: 100% | PPI activity GR80, BRAPP [7]: 30 g/ha | inhibition at 30 g/ha [8, 13]: 100% | inhibition at 100 g/ha [8, 13]: 100% | inhibition at 300 g/ha [8, 13]: 100% | inhibition at 900 g/ha [8, 13]: 100% | PPI activity GR80, AGSST [8]: 30 g/ha | inhibition at 30 g/ha [9, 14]: 0% | inhibition at 100 g/ha [9, 14]: 100% | inhibition at 300 g/ha [9, 14]: 100% | inhibition at 900 g/ha [9, 14]: 100% | PPI activity GR80, GALAP [9]: 100 g/ha | inhibition at 30 g/ha [10]: 0% | inhibition at 100 g/ha [10]: 5% | inhibition at 300 g/ha [10]: 65% | inhibition at 900 g/ha [10]: 95%
